Results published in ChEMBL document CHEMBL2176906, “Diterpenoids isolated from Sideritis species protect astrocytes against oxidative stress via Nrf2” (J Nat Prod, 2012).
Active and inactive are the calls of the source. The rule behind the calls is not given here.

Columns and labels:
[1] = biological target: T1, Nuclear factor erythroid 2-related factor 2 (Homo sapiens) (UniProt Q16236); assay: Induction of Nrf2-mediated CAT protein expression in H2O2-stimulated human U373MG cells preincubated at 5 uM for 24 hrs before H2O2 challenge by Western blot method; assay type: cell-based; settings: U-373MG ATCC
T1 sequence (whole entry): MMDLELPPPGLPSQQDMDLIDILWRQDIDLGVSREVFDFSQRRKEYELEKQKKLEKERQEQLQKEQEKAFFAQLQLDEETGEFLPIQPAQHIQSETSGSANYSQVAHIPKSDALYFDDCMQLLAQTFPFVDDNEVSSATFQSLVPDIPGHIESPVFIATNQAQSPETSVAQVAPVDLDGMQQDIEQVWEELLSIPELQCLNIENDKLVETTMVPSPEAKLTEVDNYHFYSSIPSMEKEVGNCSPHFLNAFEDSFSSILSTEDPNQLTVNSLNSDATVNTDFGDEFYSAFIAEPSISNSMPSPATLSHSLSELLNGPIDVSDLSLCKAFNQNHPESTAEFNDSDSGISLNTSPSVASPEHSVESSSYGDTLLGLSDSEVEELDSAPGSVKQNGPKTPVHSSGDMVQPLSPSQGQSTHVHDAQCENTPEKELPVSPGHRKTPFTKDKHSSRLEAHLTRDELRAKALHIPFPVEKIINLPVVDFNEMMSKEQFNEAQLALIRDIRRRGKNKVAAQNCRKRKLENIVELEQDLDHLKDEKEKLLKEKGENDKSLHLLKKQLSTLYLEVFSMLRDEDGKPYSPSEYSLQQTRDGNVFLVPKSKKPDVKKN

[2] = biological target: T1, Nuclear factor erythroid 2-related factor 2 (Homo sapiens); assay: Induction of Nrf2-mediated GPx protein expression in H2O2-stimulated human U373MG cells preincubated at 5 uM for 24 hrs before H2O2 challenge by Western blot method; assay type: cell-based; settings: U-373MG ATCC
[3] = biological target: T1, Nuclear factor erythroid 2-related factor 2 (Homo sapiens); assay: Induction of Nrf2-mediated SOD protein expression in H2O2-stimulated human U373MG cells preincubated at 10 uM for 24 hrs before H2O2 challenge by Western blot method; assay type: cell-based; settings: U-373MG ATCC
[4] = biological target: T1, Nuclear factor erythroid 2-related factor 2 (Homo sapiens); assay: Induction of Nrf2-mediated SOD protein expression in H2O2-stimulated human U373MG cells preincubated at 5 uM for 24 hrs before H2O2 challenge by Western blot method; assay type: cell-based; settings: U-373MG ATCC
U373 MG [5] = assay: Induction of Nrf2 nuclear protein expression in H2O2-stimulated human U373MG cells preincubated at 10 uM for 24 hrs before H2O2 challenge by Western blot method; assay type: functional, cell-based; settings: U-373MG ATCC
U373 MG [6] = assay: Induction of Nrf2 nuclear protein expression in H2O2-stimulated human U373MG cells preincubated at 5 uM for 24 hrs before H2O2 challenge by Western blot method; assay type: functional, cell-based; settings: U-373MG ATCC
U373 MG [7] = assay: Induction of HO-1 activity in human U373MG cells assessed as bilirubin production per mg protein preincubated at 10 uM for 24 hrs before H2O2 challenge by fluorimetric method (reference value: 19.6 +/-3.5 pmol/hr/mg protein); assay type: functional, U-373MG ATCC
U373 MG [8] = assay: Induction of HO-1 activity in human U373MG cells assessed as bilirubin production per mg protein preincubated at 5 uM for 24 hrs before H2O2 challenge by fluorimetric method (reference value: 19.6 +/-3.5 pmol/hr/mg protein); assay type: functional, U-373MG ATCC
U373 MG [9] = assay: Induction of total GPx activity in human U373MG cells assessed as […] per mg protein preincubated at 5 uM for 24 hrs before H2O2 challenge by fluorimetric method (reference value: 58.5 +/- 5.1 nmol/min/mg protein); assay type: functional, U-373MG ATCC
U373 MG [10] = assay: Induction of selenium-dependent GPx activity in human U373MG cells assessed as […] per mg protein preincubated at 10 uM for 24 hrs before H2O2 challenge by fluorimetric method (reference value: 14.7 +/- 2.9 nmol/min/mg protein); assay type: functional, U-373MG ATCC
U373 MG [11] = assay: Induction of selenium-dependent GPx activity in human U373MG cells assessed as […] per mg protein preincubated at 5 uM for 24 hrs before H2O2 challenge by fluorimetric method (reference value: 14.7 +/- 2.9 nmol/min/mg protein); assay type: functional, U-373MG ATCC
U373 MG [12] = assay: Induction of Glutathione reductase activity in human U373MG cells assessed as […] per mg protein preincubated at 10 uM for 24 hrs before H2O2 challenge by fluorimetric method (reference value: 9.3 +/- 2.2 nmol/min/mg protein); assay type: functional, U-373MG ATCC
U373 MG [13] = assay: Induction of Glutathione reductase activity in human U373MG cells assessed as […] per mg protein preincubated at 5 uM for 24 hrs before H2O2 challenge by fluorimetric method (reference value: 9.3 +/- 2.2 nmol/min/mg protein); assay type: functional, U-373MG ATCC
U373 MG [14] = assay: Induction of SOD activity in human U373MG cells assessed per mg protein preincubated at 5 uM for 24 hrs before H2O2 challenge by fluorimetric method (reference value: 14.2 +/- 3 UI/mg protein); assay type: functional, U-373MG ATCC
U373 MG [15] = assay: Induction of CAT activity in human U373MG cells assessed per mg protein preincubated at 10 uM for 24 hrs before H2O2 challenge by fluorimetric method (reference value: 18.9 +/- 0.4 UI/mg protein); assay type: functional, U-373MG ATCC
U373 MG [16] = assay: Induction of CAT activity in human U373MG cells assessed per mg protein preincubated at 5 uM for 24 hrs before H2O2 challenge by fluorimetric method (reference value: 18.9 +/- 0.4 UI/mg protein); assay type: functional, U-373MG ATCC
U373 MG [17] = assay: Inhibition of AAPH-induced oxidative stress in human U373MG cells assessed as peroxy radical scavenging activity at 10 uM by ORAC assay; assay type: functional, cell-based; settings: U-373MG ATCC
U373 MG [18] = assay: Inhibition of H2O2-induced oxidative stress in human U373MG cells assessed as GSH/GSSG ratio at 10 uM (reference value: 1.8 +/- 0.1 ); assay type: functional, U-373MG ATCC
U373 MG [19] = assay: Inhibition of H2O2-induced oxidative stress in human U373MG cells assessed as GSSG level per mg protein at 10 uM by fluorimetric method (reference value: 9.2 +/- 0.9 nmol/mg protein); assay type: functional, U-373MG ATCC
U373 MG [20] = assay: Inhibition of H2O2-induced oxidative stress in human U373MG cells assessed as GSSG level per mg protein at 5 uM by fluorimetric method (reference value: 9.2 +/- 0.9 nmol/mg protein); assay type: functional, U-373MG ATCC
U373 MG [21] = assay: Inhibition of H2O2-induced oxidative stress in human U373MG cells assessed as GSH level per mg protein at 10 uM by fluorimetric method (reference value: 17.1 +/- 1.7 nmol/mg protein); assay type: functional, U-373MG ATCC
U373 MG [22] = assay: Inhibition of H2O2-induced oxidative stress in human U373MG cells assessed as GSH level per mg protein at 5 uM by fluorimetric method (reference value: 17.1 +/- 1.7 nmol/mg protein); assay type: functional, U-373MG ATCC
U373 MG [23] = assay: Inhibition of H2O2-induced lipid peroxidation in human U373MG cells assessed as reduction in MDA levels per mg protein at 5 uM by HPLC analysis (reference value: 0.95 +/- 0.03 nmol/mg protein); assay type: functional, U-373MG ATCC
U373 MG [24] = assay: Induction of ROS production in human U373MG cells at 10 uM after 24 hrs by DCFH-DA assay; assay type: functional, cell-based; settings: U-373MG ATCC
U373 MG [25] = assay: Induction of ROS production in human U373MG cells at 5 uM after 24 hrs by DCFH-DA assay; assay type: functional, cell-based; settings: U-373MG ATCC
U-373MG ATCC = assay: Antioxidant activity in human U373MG cells assessed as reduction in H2O2-induced morphological changes preincubated at 10 uM for 24 hrs before H2O2 challenge by phase-contrast microscopy; assay type: functional, cell-based

| Structure (SMILES) | Activity [1] | Activity [2] | Activity [3] | Activity [4] | Activity (U373 MG [5]) | Activity (U373 MG [6]) | Activity (U373 MG [7]) [pmol/h] | Activity (U373 MG [8]) [pmol/h] | Activity (U373 MG [9]) [nmol/min] | Activity (U373 MG [10]) [nmol/min] | Activity (U373 MG [11]) [nmol/min] | Activity (U373 MG [12]) [nmol/min] | Activity (U373 MG [13]) [nmol/min] | Activity (U373 MG [14]) [IU] | Activity (U373 MG [15]) [IU] | Activity (U373 MG [16]) [IU] | Activity (U373 MG [17]) | Ratio (U373 MG [18]) | Activity (U373 MG [19]) [nmol] | Activity (U373 MG [20]) [nmol] | other results |
| --- | --- | --- | --- | --- | --- | --- | --- | --- | --- | --- | --- | --- | --- | --- | --- | --- | --- | --- | --- | --- | --- |
| CC1(C)CCC[C@]2(C)[C@@H]1C[C@H](O)[C@@]13C=C[C@@](CO)(C1)[C@H](O)C[C@@H]23 [CONCHITRIOL] | inactive | inactive | inactive | inactive | inactive | inactive | 17.8 | 15.9 | 59.5 | 19.4 | 17.6 | 10.2 | 8.2 | 15 | 17.4 | 18.8 | inactive | 2.3 | 8.6 | 8.9 | Activity (U373 MG [21]): 19.8 nmol; Activity (U373 MG [22]): 18 nmol; Activity (U373 MG [23]): 0.91 nmol; Activity (U373 MG [24]): inactive; Activity (U373 MG [25]): inactive; Activity (U-373MG ATCC): Active |
| C=CC(=C)CC[C@H]1[C@]2(C)CCC[C@](C)(CO)[C@H]2[C@H](O)C[C@]1(C)O [ANDALUSOL] | Active | Active | Active | Active | Active | Active | 33.6 | 30.6 | 89.1 | 29.9 | 23.9 | 19.7 | 19.1 | 24.7 | 23.7 | 22.1 | inactive | 5.7 | 6.8 | 7 | Activity (U373 MG [21]): 39.8 nmol; Activity (U373 MG [22]): 36.3 nmol; Activity (U373 MG [23]): 0.62 nmol; Activity (U373 MG [24]): inactive; Activity (U373 MG [25]): inactive; Activity (U-373MG ATCC): Active |
| CC1(C)CCC[C@H]2C1=CC[C@H]1C[C@@](C)([C@@H](O)CO)C[C@@H](O)[C@@]12C [LAGASCATRIOL] | Active | Active | Active | Active | Active | Active | 32.6 | 28.6 | 76.9 | 27.1 | 22.8 | 20.6 | 15.8 | 22.8 | 23.9 | 24.2 | inactive | 4.2 | 7 | 7.1 | Activity (U373 MG [21]): 30 nmol; Activity (U373 MG [22]): 27.6 nmol; Activity (U373 MG [23]): 0.6 nmol; Activity (U373 MG [24]): inactive; Activity (U373 MG [25]): inactive; Activity (U-373MG ATCC): Active |
